EP0514216A1, “Antihypotensive benzofuran derivatives with N-linked 1H-imidazolyl-methyl-5-carboxamide substituents” (GLAXO GROUP LIMITED, priority 1991, dated 1992)

System: renal-ligated hypertensive rats
Assay: anti-hypertensive activity in vivo using renal-ligated hypertensive rats
Parameters: unit not given here
Conditions: for Reduction in diastolic blood pressure after 7h. i.a.: 0.5mg/kg intra-arterially (i.a.); for Reduction in diastolic blood pressure after 7h. p.o.: 0.5mg/kg orally (p.o.)
Procedure: Compounds of the present invention are also analysed for their anti-hypertensive activity in vivo using renal-ligated hypertensive rats.

SMILES	Reduction in diastolic blood pressure after 7h. i.a.	Reduction in diastolic blood pressure after 7h. p.o.
CCc1nc(Cl)c(C(N)=O)n1Cc1ccc2oc(-c3ccccc3NS(=O)(=O)C(F)(F)F)c(Br)c2c1 [Example 1, 1-[[3-Bromo-2-[2-[[(trifluoromethyl)sulphonyl]amino]phenyl]-5-benzofuranyl]methyl]-4-chloro-2-ethyl-1H-imidazole-5-carboxamide]	-49	-55
CCc1nc(Cl)c(C(=O)NC)n1Cc1ccc2oc(-c3ccccc3NS(=O)(=O)C(F)(F)F)c(Br)c2c1 [Example 12, 1-[[3-Bromo-2-[2-[[(trifluoromethyl)sulphonyl]amino]phenyl]-5-benzofuranyl]methyl]-4-chloro-2-ethyl-N-methyl-1H-imidazole-5-carboxamide]	-42	-31
CCc1nc(C)c(C(=O)NC)n1Cc1ccc2oc(-c3ccccc3NS(=O)(=O)C(F)(F)F)c(Br)c2c1 [Example 13, 1-[[3-Bromo-2-[2-[[(trifluoromethyl)sulphonyl]amino]phenyl]-5-benzofuranyl]methyl]-2-ethyl-4-methyl-N-methyl-1H-imidazole-5-carboxamide]	-39	-54
CCCc1nc(Cl)c(C(=O)NC)n1Cc1ccc2oc(-c3ccccc3NS(=O)(=O)C(F)(F)F)c(Br)c2c1 [Example 2, 1-[[3-Bromo-2-[2-[[(trifluoromethyl)sulphonyl]amino]phenyl]-5-benzofuranyl]methyl]-4-chloro-N-methyl-2-propyl-1H-imidazole-5-carboxamide]	-43	-60
